Data on eleven molecules can be found in DBAASP.

Usually MIC stands for the lowest concentration found to suppress growth. A high value points to a need for much substance.

Among the test systems are Staphylococcus aureus; Escherichia coli; Listeria innocua; Micrococcus luteus A270; Staphylococcus aureus 75; Escherichia coli 804; Escherichia coli 780.
Assay in all cases: ≥ marks a high value that may be exact or a test limit, other limits are often not marked, values filed in µg/mL are converted to µM
In test [1] the test system is Streptococcus mitis ATCC 903.
For test [2], the system named is Pseudomonas aeruginosa PAK.
The subject of test [3] is Streptococcus gordonii Challis DL1.
Test [4] relates to Streptococcus mutans UA159.
For test [5], the system named is Streptococcus sanguinis NY101.
For test [6], the system named is Salmonella enterica subsp. enterica serovar Enteritidis.
The subject of test [7] is Staphylococcus aureus ATCC BAA-1556.
In test [8] the test system is Staphylococcus aureus 113.
Test [9] deals with Pseudomonas aeruginosa 73.
For test [10], the system named is Bacillus subtilis ATCC 23857.
Test [11] deals with Staphylococcus aureus ATCC 29213.
Test [12] has as its system Pseudomonas aeruginosa 50.
The subject of test [13] is Acinetobacter baumannii ATCC 19606.
The test system of test [14] is Staphylococcus epidermidis ATCC 12228.
Test [15] relates to Acinetobacter baumannii 9931.
Test [16] has as its system Pseudomonas aeruginosa ATCC 27853.
Test [17] deals with Acinetobacter baumannii 97830.
In test [18] the test system is Pseudomonas aeruginosa ATCC 9027.
The subject of test [19] is Klebsiella pneumoniae ATCC 700603.
For test [20], the system named is Pseudomonas aeruginosa LMG 6395.
Test [21] concerns Klebsiella pneumoniae LMG 20218.
The subject of test [22] is Acinetobacter baumannii LMG 01041.
In test [23] the test system is Klebsiella aerogenes LMG 02094.
The test system of test [24] is Escherichia coli LMG 15862.

In brackets after ≈: the same amount, converted by molar mass. Where only a bound is given, the exact number is not on record here.

`CC[C@H](C)[C@H](NC(=O)[C@H](Cc1ccccc1)NC(=O)[C@H](Cc1cnc[nH]1)NC(=O)[C@H](CCCCN)NC(=O)[C@@H](NC(=O)[C@@H](N)Cc1ccccc1)[C@@H](C)CC)C(=O)N[C@@H](Cc1cnc[nH]1)C(=O)N[C@@H](CCCN=C(N)N)C(=O)N[C@@H](Cc1ccccc1)C(=O)N[C@@H](CO)C(=O)NCC(=O)NCC(=O)N[C@@H](CCCN=C(N)N)C(=O)N[C@@H](Cc1c[nH]c2ccccc12)C(=O)N[C@@H](CCCN=C(N)N)C(=O)N[C@@H](Cc1c[nH]c2ccccc12)C(=O)N[C@@H](CCCN=C(N)N)C(=O)N[C@@H](Cc1c[nH]c2ccccc12)C(=O)N[C@@H](Cc1ccccc1)C(N)=O` [FIKHFIHRFSGGRWRWRWF]: the MIC in test [1] amounted to 12.2 µM (≈ 32 µg/mL); in test [2], 23.9 µM (≈ 62.5 µg/mL); in the test on Staphylococcus aureus it was 12.2 µM (≈ 32 µg/mL); in test [3] it was 12.2 µM (≈ 32 µg/mL); in test [4], 3.05 µM (≈ 8 µg/mL); in [5], 12.2 µM (≈ 32 µg/mL).
For the molecule `CC(C)C[C@H](N)C(=O)N[C@@H](C)C(=O)N[C@@H](Cc1cnc[nH]1)C(=O)N[C@@H](CCCN=C(N)N)C(=O)N[C@@H](Cc1ccc(O)cc1)C(=O)N[C@@H](Cc1cnc[nH]1)C(=O)O` [LAHRYH], the MIC is 2 µM (≈ 1.59 µg/mL) in the test on Escherichia coli, 10 µM (≈ 7.96 µg/mL) with Listeria innocua, 9 µM (≈ 7.16 µg/mL) in [6] and 9 µM (≈ 7.16 µg/mL) against Micrococcus luteus A270.
On to `CC(C)C[C@H](NC(=O)[C@H](CC(C)C)NC(=O)[C@H](CC(C)C)NC(=O)[C@H](CC(C)C)NC(=O)[C@H](CC(C)C)NC(=O)[C@H](CC(C)C)NC(=O)[C@H](CCCCN)NC(=O)[C@H](CCCCN)NC(=O)[C@@H](N)CC(C)C)C(N)=O` [LKKLLLLLL], for which the MIC in [7] was at least 100 µM.
For `CC(C)C[C@H](NC(=O)[C@H](CCCCN)NC(=O)[C@H](CC(C)C)NC(=O)[C@H](CC(C)C)NC(=O)[C@H](CC(C)C)NC(=O)[C@H](CC(C)C)NC(=O)[C@H](CC(C)C)NC(=O)[C@H](CCCCN)NC(=O)[C@@H](N)CC(C)C)C(N)=O` [LKLLLLLKL], in [7], the MIC was at least 100 µM.
Still for that read-out and setting: the result for `CC(C)C[C@H](NC(=O)[C@H](CC(C)C)NC(=O)[C@H](CC(C)C)NC(=O)[C@H](CCCCN)NC(=O)[C@H](CC(C)C)NC(=O)[C@H](CC(C)C)NC(=O)[C@H](CC(C)C)NC(=O)[C@@H](N)CC(C)C)C(=O)N[C@@H](CCCCN)C(N)=O` [LLLLKLLLK] reads at least 100 µM.
Turning to `CC(C)C[C@H](NC(=O)[C@H](CCCN=C(N)N)NC(=O)[C@H](CCCN=C(N)N)NC(=O)[C@H](Cc1c[nH]c2ccccc12)NC(=O)[C@H](Cc1c[nH]c2ccccc12)NC(=O)[C@H](Cc1c[nH]c2ccccc12)NC(=O)[C@H](CCCN=C(N)N)NC(=O)[C@H](CCCN=C(N)N)NC(=O)[C@@H](N)CC(C)C)C(N)=O` [LRRWWWRRL], the MIC in [8] was 4 µM (≈ 5.71 µg/mL); with Staphylococcus aureus 75 it was 4 µM (≈ 5.71 µg/mL); in test [9], at least 64 µM; in test [10] it was 2 µM (≈ 2.85 µg/mL); in [11], 4 µM (≈ 5.71 µg/mL); against Escherichia coli 804 it was at least 32 µM. The MIC in test [12] turned out to be 8 µM (≈ 11.4 µg/mL); in test [13], 64 µM (≈ 91.3 µg/mL); in test [14], 2 µM (≈ 2.85 µg/mL); in [15], 16 µM (≈ 22.8 µg/mL); in [16], 16 µM (≈ 22.8 µg/mL); in test [17] it was 16 µM (≈ 22.8 µg/mL). Further, the minimum inhibitory concentration (MIC) with Escherichia coli 780 worked out at 8 µM (≈ 11.4 µg/mL); in [18], 16 µM (≈ 22.8 µg/mL); in test [19], 32 µM (≈ 45.7 µg/mL).
For `CC(C)C[C@H](NC(=O)[C@H](CCCN=C(N)N)NC(=O)[C@H](Cc1c[nH]c2ccccc12)NC(=O)[C@H](Cc1c[nH]c2ccccc12)NC(=O)[C@H](Cc1c[nH]c2ccccc12)NC(=O)[C@H](CCCN=C(N)N)NC(=O)[C@@H](N)CC(C)C)C(N)=O` [LRWWWRL], the MIC in test [8] was 8 µM (≈ 8.91 µg/mL); in the test with Staphylococcus aureus 75 it was 4 µM (≈ 4.46 µg/mL); in test [9], at least 32 µM; in test [10] it was 8 µM (≈ 8.91 µg/mL); in test [11], 4 µM (≈ 4.46 µg/mL); in the test on Escherichia coli 804, 16 µM (≈ 17.8 µg/mL). The minimal inhibitory concentration (MIC) in [12] stood at 16 µM (≈ 17.8 µg/mL); in [13], 64 µM (≈ 71.3 µg/mL); in test [14] it was 8 µM (≈ 8.91 µg/mL); in test [15] it was 16 µM (≈ 17.8 µg/mL); in test [16] it was 16 µM (≈ 17.8 µg/mL); in test [17] it was 16 µM (≈ 17.8 µg/mL). The minimum inhibitory concentration (MIC) stood at 16 µM (≈ 17.8 µg/mL) with Escherichia coli 780, 32 µM (≈ 35.7 µg/mL) in test [18] and 32 µM (≈ 35.7 µg/mL) in test [19].
Turning to `CC[C@H](C)[C@H](NC(=O)[C@H](CCCN=C(N)N)NC(=O)[C@H](CCCN=C(N)N)NC(=O)[C@H](CCCCN)NC(=O)[C@@H](NC(=O)[C@@H](N)CCCN=C(N)N)[C@@H](C)CC)C(=O)N[C@@H](CCCCN)C(=O)N[C@@H](CCCCN)C(=O)N[C@@H](Cc1c[nH]c2ccccc12)C(=O)N[C@@H](CC(C)C)C(=O)N[C@@H](CCCN=C(N)N)C(N)=O` [RIKRRIKKWLR], the MIC was at least 32 µM in [20]; at least 256 µM in test [21]; at least 256 µM in [22]; at least 256 µM in test [23]; 24 µM (≈ 37.2 µg/mL) in test [24].
In the case of `CC[C@H](C)[C@H](NC(=O)[C@H](CCCN=C(N)N)NC(=O)[C@H](CCC(N)=O)NC(=O)[C@@H](NC(=O)[C@@H](NC(=O)[C@@H](N)CCCN=C(N)N)[C@@H](C)CC)C(C)C)C(=O)N[C@@H](CCCCN)C(=O)N[C@@H](CCCCN)C(=O)N[C@@H](Cc1c[nH]c2ccccc12)C(=O)N[C@@H](CC(C)C)C(=O)N[C@@H](CCCN=C(N)N)C(N)=O` [RIVQRIKKWLR], the minimal inhibitory concentration (MIC) was 16 µM (≈ 23.9 µg/mL) in [20]; at least 32 µM in test [21]; at least 64 µM in test [22]; at least 128 µM in [23]; 12 µM (≈ 17.9 µg/mL) in test [24].
The matching figures for `CC[C@H](C)[C@H](NC(=O)[C@H](CCCN=C(N)N)NC(=O)[C@H](CCC(N)=O)NC(=O)[C@@H](NC(=O)[C@@H](NC(=O)[C@@H](N)CCCN=C(N)N)[C@@H](C)CC)C(C)C)C(=O)N[C@@H](CCCCN)C(=O)N[C@@H](CCCCN)C(=O)N[C@@H](Cc1c[nH]c2ccccc12)C(=O)N[C@@H](CCCN=C(N)N)C(N)=O` [RIVQRIKKWR]: at least 256 µM, at least 256 µM, at least 256 µM, at least 256 µM and at least 256 µM.
Take `NC(=O)[C@H](Cc1c[nH]c2ccccc12)NC(=O)[C@H](Cc1c[nH]c2ccccc12)NC(=O)[C@H](CCCN=C(N)N)NC(=O)[C@H](Cc1c[nH]c2ccccc12)NC(=O)[C@H](Cc1c[nH]c2ccccc12)NC(=O)[C@H](Cc1c[nH]c2ccccc12)NC(=O)[C@H](CCCN=C(N)N)NC(=O)[C@H](Cc1c[nH]c2ccccc12)NC(=O)[C@@H](N)Cc1c[nH]c2ccccc12` [WWRWWWRWW]: the minimal inhibitory concentration (MIC) in test [8] was 16 µM (≈ 26.1 µg/mL); in the test on Staphylococcus aureus 75, 8 µM (≈ 13.1 µg/mL); in [9], at least 128 µM; in [10] it was 4 µM (≈ 6.53 µg/mL); in [11], 8 µM (≈ 13.1 µg/mL); against Escherichia coli 804, at least 64 µM. In addition, the MIC in [12] was at least 128 µM; in [13], over 128 µM; in [14], 4 µM (≈ 6.53 µg/mL); in test [15], at least 32 µM; in test [16], over 128 µM; in test [17] it was at least 64 µM. Besides, the results for the MIC (against Escherichia coli 780; in test [18]; in test [19]) were at least 64 µM, over 128 µM and 32 µM (≈ 52.3 µg/mL), respectively.
